The results in this text go back to US20230271954A1 (Gossamer Bio Services, Inc., priority 2020, published 2023).

The target of one test is DGKα (Homo sapiens, UniProt P23743). As to the kind of experiment: DGKα biochemical assay (ADP-Glo). The settings on record: read-out: DGK α IC50. A digest of the protocol: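 ADP-Glo kinase assay using OAG/PS (1:2) lipid substrate, sonicated, in HEPES pH 7.0 buffer with MgCl2, CaCl2, DTT, BSA, Triton X-100. Enzyme preincubated with compound 30 min at RT; substrate with ATP (DGKα: 400 μM) added, 45 min RT. Luminescence read; % inhibition vs DMSO and no-enzyme controls.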
Sequence of DGKα (P23743 whole entry): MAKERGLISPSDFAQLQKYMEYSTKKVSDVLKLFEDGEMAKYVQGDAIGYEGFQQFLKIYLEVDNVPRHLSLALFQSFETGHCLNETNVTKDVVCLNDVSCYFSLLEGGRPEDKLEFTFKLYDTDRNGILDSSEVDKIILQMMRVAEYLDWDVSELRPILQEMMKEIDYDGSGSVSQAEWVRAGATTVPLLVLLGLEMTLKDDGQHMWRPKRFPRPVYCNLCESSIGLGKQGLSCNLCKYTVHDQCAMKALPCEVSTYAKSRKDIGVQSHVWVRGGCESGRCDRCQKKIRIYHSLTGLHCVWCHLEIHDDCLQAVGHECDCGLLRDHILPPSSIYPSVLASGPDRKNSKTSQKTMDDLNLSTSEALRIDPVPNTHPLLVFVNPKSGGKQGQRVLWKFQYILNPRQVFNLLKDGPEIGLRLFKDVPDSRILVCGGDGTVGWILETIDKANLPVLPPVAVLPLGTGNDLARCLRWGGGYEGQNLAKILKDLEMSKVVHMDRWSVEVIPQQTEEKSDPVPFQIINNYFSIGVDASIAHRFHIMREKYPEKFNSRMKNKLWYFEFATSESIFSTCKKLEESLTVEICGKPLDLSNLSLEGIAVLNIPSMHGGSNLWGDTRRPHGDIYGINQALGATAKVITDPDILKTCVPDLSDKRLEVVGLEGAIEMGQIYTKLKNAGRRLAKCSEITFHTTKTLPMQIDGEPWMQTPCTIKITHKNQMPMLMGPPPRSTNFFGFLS

A further test deals with T1, DGKζ (Homo sapiens, UniProt Q13574).
T1 construct: purchased Carna 12-110
T1 sequence (Q13574 1-929 isoform Q13574-4): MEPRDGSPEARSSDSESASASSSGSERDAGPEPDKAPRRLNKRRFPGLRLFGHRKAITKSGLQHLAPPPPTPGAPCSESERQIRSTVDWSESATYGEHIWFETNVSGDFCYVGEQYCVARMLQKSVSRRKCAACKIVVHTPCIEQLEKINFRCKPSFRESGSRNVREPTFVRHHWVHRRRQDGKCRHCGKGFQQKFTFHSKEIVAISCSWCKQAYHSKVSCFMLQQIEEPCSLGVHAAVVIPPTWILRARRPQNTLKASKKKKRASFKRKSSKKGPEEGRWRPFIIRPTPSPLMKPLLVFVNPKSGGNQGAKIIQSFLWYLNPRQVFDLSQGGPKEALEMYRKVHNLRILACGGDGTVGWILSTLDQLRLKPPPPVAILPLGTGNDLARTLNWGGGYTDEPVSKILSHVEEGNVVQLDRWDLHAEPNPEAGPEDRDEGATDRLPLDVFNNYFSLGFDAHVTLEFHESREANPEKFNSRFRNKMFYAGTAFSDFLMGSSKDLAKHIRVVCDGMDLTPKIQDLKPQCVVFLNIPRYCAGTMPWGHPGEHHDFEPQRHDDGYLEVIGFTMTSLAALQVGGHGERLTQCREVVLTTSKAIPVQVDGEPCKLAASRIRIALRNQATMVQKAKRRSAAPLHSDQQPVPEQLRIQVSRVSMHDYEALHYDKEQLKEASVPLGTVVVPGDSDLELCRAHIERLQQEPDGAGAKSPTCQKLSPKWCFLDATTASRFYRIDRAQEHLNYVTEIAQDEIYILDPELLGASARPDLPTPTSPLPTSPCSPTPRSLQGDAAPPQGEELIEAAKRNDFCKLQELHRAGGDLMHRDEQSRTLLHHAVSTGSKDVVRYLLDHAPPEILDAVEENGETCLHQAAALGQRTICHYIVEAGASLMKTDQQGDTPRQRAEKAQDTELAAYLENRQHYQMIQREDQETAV
As to the kind of experiment: DGKζ biochemical assay (ADP-Glo). The settings on record: read-out: DGK ζ IC50. On the technique in general: ADP-Glo first removes unused ATP, then detects ADP through luciferase.

For `Cc1ccc(F)cc1N(CC1CC1)[C@H]1CC[C@H](N(C)c2c(C#N)c(=O)n(C)c3ccc(Cl)nc23)CC1` [Example 118, trans-6-chloro-4-((4-((cyclopropylmethyl)(5-fluoro-2-methylphenyl)amino)cyclohexyl)(methyl)amino)-1-methyl-2-oxo-1,2-dihydro-1,5-naphthyridine-3-carbonitrile], the IC50 (in general, the concentration needed to halve the response being measured) is at least 1000 nM on DGKα and 100 to 1000 nM on DGKζ.
As to `Cn1c(=O)cc(N(C)[C@H]2CC[C@@H](N(CC3CCOC3)c3ccc(F)c(OC(F)F)c3)CC2)c2nc(C#N)ccc21` (stereo partly drawn) [Example 156, cis-8-((-4-((3-(difluoromethoxy)-4-fluorophenyl) ((tetrahydrofuran-3-yl)methyl)amino)cyclohexyl) (methyl)amino)-5-methyl-6-oxo-5,6-dihydro-1,5-naphthyridine-2-carbonitrile], the IC50 on DGKα and on DGKζ was 100 to 1000 nM each time.
For `Cn1c(=O)cc(N(C)[C@H]2CC[C@@H](N(CC3CC3)c3cccc(F)c3)CC2)c2nc(C#N)ccc21` [Example 24, cis-8-((4-((cyclopropylmethyl)(3-fluorophenyl)amino)cyclohexyl)(methyl)amino)-5-methyl-6-oxo-5,6-dihydro-1,5-naphthyridine-2-carbonitrile], the IC50 was 10 to 100 nM on DGKα and at least 1000 nM on DGKζ.
In the same order, the values of `CC(C)CN(c1ccc(F)cc1)[C@H]1CC[C@@H](N(C)c2c(C#N)c(=O)n(C)c3ccc(C#N)nc23)CC1` [Example 52, cis-8-((-4-((4-fluorophenyl)(isobutyl)amino)cyclohexyl)(methyl)amino)-5-methyl-6-oxo-5,6-dihydro-1,5-naphthyridine-2,7-dicarbonitrile] are under 10 nM and 10 to 100 nM.
In the same order, the values of `Cc1cc2c(cc1N(CC1CCC1)[C@H]1CC[C@@H](N(C)c3cc(=O)n(C)c4ccc(C#N)nc34)CC1)OCO2` [Example 150, cis-8-((4-((cyclobutylmethyl)(6-methylbenzo[d][1,3]dioxol-5-yl)amino)cyclohexyl)(methyl)amino)-5-methyl-6-oxo-5,6-dihydro-1,5-naphthyridine-2-carbonitrile] are 100 to 1000 nM and 10 to 100 nM.
`Cc1cc(N(CC2CCOC2)[C@H]2CC[C@@H](N(C)c3c(C#N)c(=O)n(C)c4ccc(C#N)nc34)CC2)ccc1F` (stereo partly drawn) [Example 159, cis-8-((-4-((4-fluoro-3-methylphenyl) ((tetrahydrofuran-3-yl)methyl)amino)cyclohexyl) (methyl)amino)-5-methyl-6-oxo-5,6-dihydro-1,5-naphthyridine-2,7-dicarbonitrile]: the IC50 at DGKα and on DGKζ was 10 to 100 nM in each case.
Take `Cn1c(=O)c(C#N)c(N(C)[C@H]2CC[C@@H](N(c3ccc(F)cc3)C3CC3)CC2)c2nc(C#N)ccc21` [Example 50, cis-8-((4-(cyclopropyl(4-fluorophenyl)amino)cyclohexyl)(methyl)amino)-5-methyl-6-oxo-5,6-dihydro-1,5-naphthyridine-2,7-dicarbonitrile]: the figures for the IC50 at DGKα and at DGKζ were under 10 nM and 100 to 1000 nM, respectively.
With `Cc1[nH]c2ccccc2c1C(=O)N[C@H]1CC[C@H](N(CC2(C)COC2)c2ccccc2)CC1` [Example 4E, trans-2-Methyl-N-(4-(((3-methyloxetan-3-yl)methyl)(phenyl)amino)cyclohexyl)-1H-indole-3-carboxamide], the IC50 at DGKα and at DGKζ was at least 1000 nM throughout.
Regarding `COc1cccc(N(CC2CC2)[C@H]2CC[C@@H](N(C)c3cc(=O)n(C)c4ccc(C#N)nc34)CC2)c1` [Example 12, cis-8-((4-((cyclopropylmethyl)(3-methoxyphenyl)amino)cyclohexyl)(methyl)amino)-5-methyl-6-oxo-5,6-dihydro-1,5-naphthyridine-2-carbonitrile], the IC50 at DGKα is 100 to 1000 nM; at DGKζ it was at least 1000 nM.
Consider `Cc1cc(N(CC2CCOC2)[C@H]2CC[C@@H](N(C)c3cc(=O)n(C)c4ccc(C#N)nc34)CC2)ccc1F` (stereo partly drawn) [Example 157, cis-8-((-4-((4-fluoro-3-methylphenyl) ((tetrahydrofuran-3-yl)methyl)amino)cyclohexyl) (methyl)amino)-5-methyl-6-oxo-5,6-dihydro-1,5-naphthyridine-2-carbonitrile], for which the IC50 at DGKα lay in the range of 10 to 100 nM; on DGKζ it was 100 to 1000 nM.
As to `Cc1cc(F)ccc1N(C[C@@H]1CCOC1)[C@H]1CC[C@H](N(C)c2c(C#N)c(=O)n(C)c3ccc(C#N)nc23)CC1` [Example 166, trans-8-((-4-((4-fluoro-2-methylphenyl)(((S)-tetrahydrofuran-3-yl)methyl)amino)cyclohexyl) (methyl)amino)-5-methyl-6-oxo-5,6-dihydro-1,5-naphthyridine-2,7-dicarbonitrile], the values for the IC50 at DGKα and on DGKζ were at least 1000 nM and 100 to 1000 nM, respectively.
In the same order, the values of `Cn1c(=O)c(C#N)c(N(C)[C@H]2CC[C@@H](N(CC3COC3)c3ccc(F)cc3)CC2)c2nc(Cl)ccc21` [Example 3M, cis-6-Chloro-4-[[4-(N-4-fluorophenyl-N-oxetan-3-ylmethylanilino)cyclohexyl]-methylamino]-1-methyl-2-oxo-1,2-dihydro-1,5-naphthyridine-3-carbonitrile] are 10 to 100 nM and 100 to 1000 nM.
As to `Cn1c(=O)cc(N(C)[C@H]2CC[C@@H](N(C(=O)C3CC3)c3ccc(F)cc3)CC2)c2nc(C#N)ccc21` [Example 208, cis-N-(4-((6-cyano-1-methyl-2-oxo-1,2-dihydro-1,5-naphthyridin-4-yl)(methyl)amino)cyclohexyl)-N-(4-fluorophenyl)cyclopropanecarboxamide], the half-inhibitory concentration (IC50) at DGKα is 100 to 1000 nM; on DGKζ it was at least 1000 nM.
`COc1cc(N(CC2CC2)[C@H]2CC[C@@H](N(C)c3cc(=O)n(C)c4ccc(C#N)nc34)CC2)cc(OC)c1F` [Example 124, cis-8-((-4-((cyclopropylmethyl)(4-fluoro-3,5-dimethoxyphenyl)amino)cyclohexyl)(methyl)amino)-5-methyl-6-oxo-5,6-dihydro-1,5-naphthyridine-2-carbonitrile]: the figures for the IC50 at DGKα and on DGKζ were 100 to 1000 nM and 10 to 100 nM, respectively.
As for `Cc1cc(F)ccc1N(CC1CC(F)(F)C1)[C@H]1CC[C@@H](N(C)c2cc(=O)n(C)c3ccc(C#N)nc23)CC1` [Example 184, cis-8-((-4-(((3,3-difluorocyclobutyl)methyl)(4-fluoro-2-methylphenyl)amino)cyclohexyl)(methyl)amino)-5-methyl-6-oxo-5,6-dihydro-1,5-naphthyridine-2-carbonitrile], the half-maximal inhibitory concentration (IC50) fell in the range of 100 to 1000 nM on DGKα and 10 to 100 nM at DGKζ.
With `COc1cc(N(CC2CC2)[C@H]2CC[C@@H](N(C)c3c(C#N)c(=O)n(C)c4ccc(C#N)nc34)CC2)ccc1F` [Example 33, cis-8-((4-((cyclopropylmethyl)(4-fluoro-3-methoxyphenyl)amino)cyclohexyl)(methyl)amino)-5-methyl-6-oxo-5,6-dihydro-1,5-naphthyridine-2,7-dicarbonitrile], the IC50 on DGKα and at DGKζ was 100 to 1000 nM in each case.
As to `Cn1c(=O)cc(N(C)[C@H]2CC[C@@H](N(CC3CCC3)c3ccc(F)cc3)CC2)c2nc(C#N)ccc21` [Example 43, cis-8-((-4-((cyclobutylmethyl)(4-fluorophenyl)amino)cyclohexyl)(methyl)amino)-5-methyl-6-oxo-5,6-dihydro-1,5-naphthyridine-2-carbonitrile], the IC50 was under 10 nM on DGKα and 100 to 1000 nM at DGKζ.
In the same order, the values of `Cc1ccc(N(CC2CCC2)[C@H]2CC[C@H](N(C)c3c(C#N)c(=O)n(C)c4ccc(C#N)nc34)CC2)cc1` [Example 129, trans-8-((-4-((cyclobutylmethyl)(p-tolyl)amino)cyclohexyl)(methyl)amino)-5-methyl-6-oxo-5,6-dihydro-1,5-naphthyridine-2,7-dicarbonitrile] are 100 to 1000 nM and 100 to 1000 nM.
Regarding `O=C(N[C@H]1CC[C@@H](N(CC2CC2)c2ccccc2)CC1)c1cnn2cccnc12` [Example 4G, cis-N-(4-((Cyclopropylmethyl)(phenyl)amino)cyclohexyl) pyrazolo[1,5-a]pyrimidine-3-carboxamide], the IC50 at DGKα and at DGKζ was at least 1000 nM in each case.
In the case of `Cn1c(=O)c(C#N)c(N(C)[C@H]2CC[C@@H](N(CC3COCCO3)c3ccc(F)cc3)CC2)c2nc(C#N)ccc21` (stereo partly drawn) [Example 141, cis-8-((-4-(((1,4-dioxan-2-yl)methyl)(4-fluorophenyl)amino)cyclohexyl)(methyl)amino)-5-methyl-6-oxo-5,6-dihydro-1,5-naphthyridine-2,7-dicarbonitrile], the results for the half-inhibitory concentration (IC50) at DGKα and at DGKζ were under 10 nM and 10 to 100 nM, respectively.
In the case of `Cn1c(=O)c(C#N)c(N(C)[C@H]2CC[C@H](N(CC3COC3)c3ccc(F)cc3O)CC2)c2nc(Cl)ccc21` [Example 3O, trans-6-chloro-4-((4-((4-fluoro-2-hydroxyphenyl)(oxetan-3-ylmethyl)amino)cyclohexyl)(methyl)amino)-1-methyl-2-oxo-1,2-dihydro-1,5-naphthyridine-3-carbonitrile], the results for the IC50 on DGKα and at DGKζ were 100 to 1000 nM and at least 1000 nM, respectively.
For the compound `CN1C(=O)CN([C@H]2CC[C@H](N(c3ccccc3O)C3CC3)CC2)c2nc(C#N)ccc21` [Example 2B, 4-(trans-4-(Cyclopropyl(2-hydroxyphenyl)amino)cyclohexyl)-1-methyl-2-oxo-1,2,3,4-tetrahydropyrido[3,2-b]pyrazine-6-carbonitrile], the concentration for half-maximal inhibition (IC50) at DGKα is 100 to 1000 nM; on DGKζ, at least 1000 nM.
In the same order, the values of `COc1cccc(N(CC2CC2)[C@H]2CC[C@@H](N(C)c3c(C#N)c(=O)n(C)c4ccc(Cl)nc34)CC2)c1` [Example 11, cis-6-chloro-4-((4-((cyclopropylmethyl)(3-methoxyphenyl)amino)cyclohexyl)(methyl)amino)-1-methyl-2-oxo-1,2-dihydro-1,5-naphthyridine-3-carbonitrile] are 10 to 100 nM and 100 to 1000 nM.
